Source: the NIST ThermoML archive (doi:10.1021/je900124n)
Values joined by “and” are separate entries in the source; they are usually repeats but may differ in a detail not shown here. Identical values can stand only once.

Details: Fluid (supercritical or subcritical phases), Buoyancy - hydrostatic balance with magnetic suspension - two sinkers

CCC [propane]
Details | mass density
280 K, 12164 kPa | 540.567 kg/m3
280 K, 12165 kPa | 540.568 kg/m3
280 K, 12166 kPa | 540.568 kg/m3
280 K, 12167 kPa | 540.57 kg/m3
280 K, 16052 kPa | 546.301 kg/m3 and 546.302 kg/m3
280 K, 16053 kPa | 546.299 kg/m3 and 546.301 kg/m3
280 K, 16054 kPa | 546.301 kg/m3
280 K, 20169 kPa | 551.856 kg/m3
280 K, 20170 kPa | 551.857 kg/m3
280 K, 20171 kPa | 551.857 kg/m3
280 K, 20173 kPa | 551.86 kg/m3
280 K, 24174 kPa | 556.843 kg/m3
280 K, 24175 kPa | 556.845 kg/m3
280 K, 24178 kPa | 556.848 kg/m3
280 K, 29900 kPa | 563.396 kg/m3 and 563.395 kg/m3
280 K, 29902 kPa | 563.397 kg/m3 and 563.398 kg/m3
280 K, 35491 kPa | 569.254 kg/m3
280 K, 35492 kPa | 569.255 kg/m3
280 K, 35494 kPa | 569.255 kg/m3
280 K, 35496 kPa | 569.259 kg/m3
300 K, 2095.9 kPa | 492.916 kg/m3
300 K, 2096.6 kPa | 492.92 kg/m3
300 K, 2096.7 kPa | 492.918 kg/m3
300 K, 2096.8 kPa | 492.918 kg/m3
300 K, 2097 kPa | 492.917 kg/m3
300 K, 4036.5 kPa | 498.494 kg/m3
300 K, 4037.2 kPa | 498.496 kg/m3
300 K, 4037.3 kPa | 498.493 kg/m3
300 K, 4037.4 kPa | 498.494 kg/m3
300 K, 8037.7 kPa | 508.391 kg/m3
300 K, 8038 kPa | 508.393 kg/m3
300 K, 8038.1 kPa | 508.394 kg/m3
300 K, 8038.4 kPa | 508.391 kg/m3
300 K, 8038.7 kPa | 508.393 kg/m3
300 K, 12024 kPa | 516.758 kg/m3
300 K, 12025 kPa | 516.758 kg/m3 and 516.759 kg/m3
300 K, 16033 kPa | 524.122 kg/m3 and 524.123 kg/m3
300 K, 16035 kPa | 524.125 kg/m3
300 K, 16037 kPa | 524.128 kg/m3
300 K, 20366 kPa | 531.21 kg/m3
300 K, 20369 kPa | 531.216 kg/m3
300 K, 20370 kPa | 531.214 kg/m3
300 K, 23908 kPa | 536.474 kg/m3 and 536.475 kg/m3
300 K, 23909 kPa | 536.476 kg/m3
300 K, 23911 kPa | 536.479 kg/m3
300 K, 29891 kPa | 544.528 kg/m3
300 K, 29892 kPa | 544.529 kg/m3 and 544.528 kg/m3
300 K, 35152 kPa | 550.916 kg/m3
300 K, 35153 kPa | 550.918 kg/m3 and 550.916 kg/m3
300 K, 35154 kPa | 550.917 kg/m3
310 K, 261.67 kPa | 4.6501 kg/m3
310 K, 261.68 kPa | 4.6501 kg/m3 and 4.6502 kg/m3
310 K, 261.69 kPa | 4.6502 kg/m3
310 K, 460.64 kPa | 8.455 kg/m3 and 8.4548 kg/m3 and 8.4549 kg/m3
310 K, 760.19 kPa | 14.7402 kg/m3
310 K, 760.2 kPa | 14.7403 kg/m3
310 K, 760.25 kPa | 14.7415 kg/m3
310 K, 760.28 kPa | 14.7419 kg/m3 and 14.7421 kg/m3
